pIC50: −log10 of the molar value. Where a SMILES comes first, the peptide text is derived from it. Bridges are numbered along the chain shown (N, C = ends). Where no end group is shown, it is not given here.
Target: T1, P-selectin (Homo sapiens, UniProt P16109)
T1 construct: from tissue; host or cells: outdated human platelet packs from a blood bank
T1 sequence (P16109 42-830): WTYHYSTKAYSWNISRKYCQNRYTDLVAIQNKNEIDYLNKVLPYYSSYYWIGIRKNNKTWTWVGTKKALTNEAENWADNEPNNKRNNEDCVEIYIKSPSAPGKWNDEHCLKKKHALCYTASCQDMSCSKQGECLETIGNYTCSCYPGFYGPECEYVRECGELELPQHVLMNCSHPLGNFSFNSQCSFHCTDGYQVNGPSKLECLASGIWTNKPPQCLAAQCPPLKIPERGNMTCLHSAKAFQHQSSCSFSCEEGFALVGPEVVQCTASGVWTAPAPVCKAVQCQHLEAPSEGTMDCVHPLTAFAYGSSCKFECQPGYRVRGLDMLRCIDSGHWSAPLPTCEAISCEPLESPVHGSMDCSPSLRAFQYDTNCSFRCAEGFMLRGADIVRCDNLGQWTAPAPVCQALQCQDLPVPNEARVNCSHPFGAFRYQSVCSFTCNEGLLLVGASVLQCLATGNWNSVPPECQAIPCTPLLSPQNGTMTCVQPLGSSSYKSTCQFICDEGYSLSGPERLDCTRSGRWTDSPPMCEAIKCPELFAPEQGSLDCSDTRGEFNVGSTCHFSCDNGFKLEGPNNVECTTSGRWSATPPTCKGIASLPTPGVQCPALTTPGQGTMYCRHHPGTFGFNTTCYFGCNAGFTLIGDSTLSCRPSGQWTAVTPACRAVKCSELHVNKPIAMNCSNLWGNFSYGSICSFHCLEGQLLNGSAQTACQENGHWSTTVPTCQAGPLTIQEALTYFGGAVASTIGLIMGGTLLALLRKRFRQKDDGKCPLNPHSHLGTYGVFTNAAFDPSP
Assay: Inhibition of binding of human neutrophils to P-selectin (neutrophil adhesion to purified immobilized P-selectin, myeloperoxidase readout)
Type: cell-based
Conditions: P-selectin purified from human platelets, plated at 5 micrograms/mL, peptides tested 1.0 mM to 0.001 mM
From the text: Peptides can be screened for their ability to inhibit adhesion to cells, for example, neutrophil adhesion to purified P-selectin immobilized on plastic wells, using the assay described by Geng, et al., Nature 343, 757-760 1990). Human neutrophils are isolated from heparinized […] blood by density gradient centrifugation on Mono-Poly resolving media, Flow Laboratories. Neutrophil suspensions are greater than 98% pure and greater than 95% viable by trypan blue exclusion. For adhesion assays, neutrophils are suspended at a concentration of 2×10^6 cells/mL in Hanks' balanced salt solution containing 1.26 mM Ca^2+ and 0.81 mM Mg^2+ (HBSS, Gibco) with […] human serum albumin (HBSS/HSA). Adhesion assays are conducted in triplicate in 96-well microtiter plates, Corning, incubated at 4° C. overnight with 50 microliters of various protein solutions. P-selectin is isolated from human platelet lysates by immunoaffinity chromatography on antibody S12-Sepharose™ and ion-exchange chromatography on a Mono-Q™ column (FLPC, Pharmacia Fine Chemicals), as follows. Outdated human platelet packs (100 units) obtained from a blood bank and stored at 4° C. are pooled, adjusted to 5 mM EDTA at pH 7.5, centrifuged at 4,000 rpm for 30 minutes in 1 liter bottles, then washed three times with 1 liter of 0.1M NaCl, 20 mM Tris pH 7.5 (TBS), 5 mM EDTA, 5 mM benzamidine. The pellets are then resuspended in a minimum amount of wash buffer and made 1 mM in DIFP, then frozen in 50 mL screwtop tubes at -80° C. The frozen platelets are thawed and resuspended in 50 mL TBS, 5 mM benzamidine, 5 mM EDTA pH 7.5, […]. The suspension is frozen and thawed two times in a dry ice-acetone bath using a 600 mL lyophilizing flask, then homogenized in a glass/teflon mortar and pestle and made 1 mM in DIFP. The NaCl concentration is adjusted to 0.5M with a stock solution of 4M NaCl. After stirring the suspension at 4° C., it is centrifuged in polycarbonate tubes at 33,000 rpm for 60 minutes at 4° C. The supernatant (0.5M NaCl wash) is removed and saved; this supernatant contains the soluble form of P-selectin. Care is taken not to remove the top part of the pellet with the supernatant. The pellets are then homogenized in extraction buffer (TBS, 5 mM benzamidine, 5 mM EDTA, pH 7.5, 100 μM leupeptin, 2% Triton X-100). After centrifugation at 19,500 rpm for 25 minutes at 4° C., the supernatant is removed. The extraction procedure is repeated with the pellet and the supernatant is combined with the first supernatant. The combined extracts, which contain the membrane form of P-selectin, are adjusted to 0.5M NaCl. The soluble fraction (0.5M NaCl wash) and the membrane extract (also adjusted to 0.5M NaCl) are absorbed with separate pools of the monoclonal antibody S12 (directed to P-selectin) previously coupled to Affigel (Biorad) at 5 mg/mL for 2 hours at 4° C. After letting the resins settle, the supernatants are removed. The S12 Affigel containing bound GMP-140 is then loaded into a column and washed overnight at 4° C. with 400 mL of 0.5M NaCl, 20 mM Tris pH 7.5, 0.01% Lubrol PX. Bound P-selectin is eluted from the S12 Affigel with 100 mL of 80% ethylene glycol, 1 mM MES pH 6.0, 0.01% Lubrol PX. Peak fractions with absorbance at 280 nm are pooled. Eluates are dialyzed against TBS with 0.05% Lubrol, then applied to a Mono Q column (FPLC from Pharmacia). The concentrated protein is step eluted with 2M NaCl, 20 mM Tris pH 7.5 (plus 0.05% Lubrol PX for the membrane fraction). Peak fractions are dialyzed into TBS pH 7.5 (plus 0.05% Lubrol PX for the membrane fraction). P-selectin is plated at 5 micrograms/mL and the control proteins: human serum albumin (Alb), platelet glycoprotein IIb/IIIa (IIb), von Willsbrand factor (vWF), fibrinogen (FIB), thrombomodulin (TM), gelatin (GEL) or human serum (HS), are added at 50 micrograms/mL. […]

pIC50 | Molecule
3.06 | SKKKLALCI-NH2 [SEQ ID NO: 30, SKKKLALCI--NH2]
3.07 | SKSKLALCY-NH2 [SEQ ID NO: 60, SKSKLALCY--NH2]
4.62 | SKRKRALCY-NH2 [SEQ ID NO: 56, SKRKRALCY--NH2]
3.63 | SKKKAALCY-NH2 [SEQ ID NO: 24, SKKKAALCY--NH2]
3.57 | CC(C)C[C@H](NC(=O)[C@H](C)NC(=O)[C@H](Cc1c[nH]cn1)NC(=O)[C@H](CCCCN)NC(=O)[C@H](CCCCN)NC(=O)[C@H](CCCCN)NC(=O)[C@H](CC(C)C)NC(=O)[C@@H](N)CS)C(=O)N[C@@H](CS)C(=O)N[C@@H](Cc1ccc(O)cc1)C(N)=O [SEQ ID NO: 1, Cystinyl-leucyl-lysyl-lysyl-lysyl-histidyl-alanyl-leucyl-cystinyl-tyrosine- amide] (H-CLKKKHALCY-NH2)
4.07 | SKKKLAFCY-NH2 [SEQ ID NO: 27, SKKKLAFCY--NH2]
4.13 | Ac-FKKKLALCY-NH2 [SEQ ID NO: 7, Ac-FKKKLALCY--NH2]
4.06 | Ac-SKKKLALLY-NH2 [SEQ ID NO: 37, Ac-SKKKLALLY--NH2]
4.28 | Ac-NKKKLALCY-NH2 [SEQ ID NO: 14, Ac-NKKKLALCY--NH2]
3.99 | PKKKLALCY-NH2 [SEQ ID NO: 16, PKKKLALCY--NH2]
4.19 | SKKKLALCF-NH2 [SEQ ID NO: 29, SKKKLALCF--NH2]
5.52 | SRKRLALCY-NH2 [SEQ ID NO: 66, SRKRLALCY--NH2]
4.92 | Ac-SKRKLALCY-NH2 [SEQ ID NO: 53, Ac-SKRKLALCY--NH2]
3.37 | SKKKLALTY-NH2 [SEQ ID NO: 41, SKKKLALTY--NH2]
4.80 | SRKKLALCY-NH2 [SEQ ID NO: 64, SRKKLALCY--NH2]
5.05 | SKLKLALCY-NH2 [SEQ ID NO: 52, SKLKLALCY--NH2]
4.02 | SKKKLILCY-NH2 [SEQ ID NO: 45, SKKKLILCY--NH2]
4.21 | SKKKIALCY-NH2 [SEQ ID NO: 26, SKKKIALCY--NH2]
5.10 | Ac-SKRRLALCY-NH2 [SEQ ID NO: 57, Ac-SKRRLALCY--NH2]
4.37 | SKKKLALIY-NH2 [SEQ ID NO: 35, SKKKLALIY--NH2]
3.75 | LKKKHALCY-NH2 [SEQ ID NO: 11, LKKKHALCY--NH2]
3.75 | SKKKLALHY-NH2 [SEQ ID NO: 36, SKKKLALHY--NH2]
3.88 | SKKKLALLY-NH2 [SEQ ID NO: 38, SKKKLALLY--NH2]
3.55 | SSKKLALCY-NH2 [SEQ ID NO: 70, SSKKLALCY--NH2]
4.59 | Ac-LKKKLALCY-NH2 [SEQ ID NO: 12, Ac-LKKKLALCY--NH2]

pIC50 | Molecule
5.40 | SKRKLALCY-NH2 [SEQ ID NO: 54, SKRKLALCY--NH2]
3.18 | SKKKHALCY-NH2 [SEQ ID NO: 25, SKKKHALCY--NH2]
4.85 | SRRKLALCY-NH2 [SEQ ID NO: 69, SRRKLALCY--NH2]
3.63 | SKKKLALVY-NH2 [SEQ ID NO: 40, SKKKLALVY--NH2]
4.32 | CC(C)C[C@H](NC(=O)[C@H](C)NC(=O)[C@H](CC(C)C)NC(=O)[C@H](CCCCN)NC(=O)[C@H](CCCCN)NC(=O)[C@H](CCCCN)NC(=O)[C@H](CO)NC(=O)[C@@H](N)CS)C(=O)N[C@@H](CS)C(=O)N[C@@H](Cc1ccc(O)cc1)C(N)=O [SEQ ID NO: 2, Cystinyl-serinyl-lysyl-lysyl-lysyl-leucyl-alanyl-leucyl-cystinyl-tyrosine-amide] (H-CSKKKLALCY-NH2)
3.97 | SKKKLAICY-NH2 [SEQ ID NO: 28, SKKKLAICY--NH2]
3.79 | Ac-SKKKLALVY-NH2 [SEQ ID NO: 39, Ac-SKKKLALVY--NH2]
5.70 | CC(C)C[C@@H]1NC(=O)[C@H](C)NC(=O)[C@H](C)NC(=O)[C@H](CCCCN)NC(=O)[C@H](CC(C)C)NC(=O)[C@H](CCCCN)NC(=O)[C@H](Cc2c[nH]cn2)NC(=O)[C@@H](N)CSSC[C@@H](C(=O)N[C@@H](Cc2ccc(O)cc2)C(N)=O)NC1=O [SEQ ID NO: 6, Cyclo-(cystinyl-histidyl-lysyl-leucyl-lysyl-alanyl-alanyl-leucyl-cystinyl)- tyrosine-amide] (H-CHKLKAALCY-NH2; disulfide 1-9)
4.57 | Ac-SRRKLALCY-NH2 [SEQ ID NO: 68, Ac-SRRKLALCY--NH2]
3.48 | SKKKLQACY-NH2 [SEQ ID NO: 46, SKKKLQACY--NH2]
4.72 | NKKKLALCY-NH2 [SEQ ID NO: 15, NKKKLALCY--NH2]
4.02 | SKKKLFLCY-NH2 [SEQ ID NO: 43, SKKKLFLCY--NH2]
4.96 | Ac-HKKKLALCY-NH2 [SEQ ID NO: 9, Ac-HKKKLALCY--NH2]
4.82 | SKKKLALFY-NH2 [SEQ ID NO: 32, SKKKLALFY--NH2]
5.40 | SKKRLALCY-NH2 [SEQ ID NO: 50, SKKRLALCY--NH2]
3.68 | SKKKLHLCY-NH2 [SEQ ID NO: 44, SKKKLHLCY--NH2]
4.70 | FKKKLALCY-NH2 [SEQ ID NO: 8, FKKKLALCY--NH2]
4.72 | SKKKLALCY-NH2 [SEQ ID NO: 31, SKKKLALCY--NH2]
3.41 | SKKKLALIV-NH2 [SEQ ID NO: 33, SKKKLALIV--NH2]
2.99 | QKKKLALCY-NH2 [SEQ ID NO: 17, QKKKLALCY--NH2]
3.55 | CC(C)C[C@H](NC(=O)[C@H](C)NC(=O)[C@H](C)NC(=O)[C@H](CCCCN)NC(=O)[C@H](CC(C)C)NC(=O)[C@H](CCCCN)NC(=O)[C@H](Cc1c[nH]cn1)NC(=O)[C@@H](N)CS)C(=O)N[C@@H](CS)C(=O)N[C@@H](Cc1ccc(O)cc1)C(N)=O [SEQ ID NO: 3, Cystinyl-histidyl-lysyl-leucyl-lysyl-alanyl-alanyl-leucyl-cystinyl-tyrosine-amide] (H-CHKLKAALCY-NH2)
4.92 | Ac-SKLKLALCY-NH2 [SEQ ID NO: 51, Ac-SKLKLALCY--NH2]
3.26 | SKKFLALCY-NH2 [SEQ ID NO: 22, SKKFLALCY--NH2]
3.23 | SRKRLALSY-NH2 [SEQ ID NO: 67, SRKRLALSY--NH2]
